Measurements taken from patent publication US20230201217A1 (priority 2019, published 2023).
Several values for one entry are separate records, joined by “and”; a condition that tells them apart may be missing. Identical values can stand only once. Like-named read-outs stand apart in the source and are kept apart here.

Assays:
[1] = test system: isolated rabbit Purkinje fibers; assay: Action potential duration in rabbit cardiac Purkinje fibers; conditions: 50 μM, positive control
Description: The in vitro effect of 18-MC on the cardiac action potential was evaluated in isolated rabbit Purkinje fibers (FIG. 13). […] Fibers with resting potentials more negative than −80 mV and normal action potential morphology (APD90≥150 ms) were used in the study. Fibers were stimulated continuously at BCL of 1 second for at least 5 minutes. At the end of this period, baseline control APD rate dependence was measured using stimulus pulse trains consisting of approximately 50 pulses at BCL of 1 and 0.5 seconds. After returning to BCL of 1 second, 18-MC (or dl-sotalol) at the lowest concentration was applied for at least 20 minutes to allow equilibration, and the stimulus trains repeated. […] The average responses from the last five recorded action potentials from each stimulus train were analyzed for each test condition.
Electrophysiological recordings were performed with four nominal concentrations of 18-MC (0.3, 1, 3, and 10 μM) added sequentially to four preparations at two stimulus intervals (basic cycle lengths of 1 s and 0.5 s). The effects of 18-MC on action potential parameters were compared to time-matched vehicle control sequences.

[2] = Phase 1 first-in-human study, pharmacokinetics in plasma; conditions: for Cmax: Average; for percentage of the total drug related material: 4 mg twice at 0 and +10 hours
Description: Fourteen normal, healthy volunteers were enrolled in the study. Seven volunteers were treated in the first cohort (3 placebo, 4 received a single dose of 20 mg of 18-MC) and seven in the second cohort (2 placebo, 5 received 8 mg as 4 mg doses of 18-MC administered at 0 and plus 10 hours). For Cohort A, volunteers were monitored in a hospital unit for 2 days (36 hours) days, and were followed up for safety at Days 3, 7 and 30. For Cohort B, volunteers were monitored in a hospital unit for 2 days (36 hours), and were followed up for safety at Days 3, 4, 7 and 30.
This study was designed as a randomized, double-blind, placebo-controlled, single-center Phase 1 first-in-human clinical trial. After screening, volunteers were admitted to the hospital for 36 hours. […] Study article was initiated on Day 1 and volunteers were discharged on Day 2. Cohort A were seen as outpatients on Days 3, 7 and 30. Cohort B were seen as outpatients on Days 3, 4, 7 and 30. 14 subjects were in the study, 5 male and 9 female.
For Cohort A, pharmacokinetic samples were obtained at baseline and at 0.5, 1.0, 2.0, 6.0, 12.0, 24, 36 hours, and 7 days post dose.
Samples underwent two analyses: A research assay (LG/MS/TOF) developed by MicroConstants, Inc., was used to collect the raw data. The first analysis was to quantitate 18-MG and the known metabolites M2, M4 and M5 (using standard curves included in the run). The second analysis compared the peak heights of 18-MG and all the metabolites that could be identified in terms of relative peak height (M1 through M10, and P1-P3).

[3] = target: T1, rat α3β4 nicotinic acetylcholine receptor (nAChR) (Rattus norvegicus, UniProt P04757+P12392); assay: cell-based; conditions: for Persistent Inhibition at 1 sec: 1 second after removal of drug; for koff: HEK293
T1 construct: expressed in transfected cells; host or cells: HEK 293 (ATCC CRL1573), transient, Lipofectamine 2000
T1 sequence (P04757 26-499): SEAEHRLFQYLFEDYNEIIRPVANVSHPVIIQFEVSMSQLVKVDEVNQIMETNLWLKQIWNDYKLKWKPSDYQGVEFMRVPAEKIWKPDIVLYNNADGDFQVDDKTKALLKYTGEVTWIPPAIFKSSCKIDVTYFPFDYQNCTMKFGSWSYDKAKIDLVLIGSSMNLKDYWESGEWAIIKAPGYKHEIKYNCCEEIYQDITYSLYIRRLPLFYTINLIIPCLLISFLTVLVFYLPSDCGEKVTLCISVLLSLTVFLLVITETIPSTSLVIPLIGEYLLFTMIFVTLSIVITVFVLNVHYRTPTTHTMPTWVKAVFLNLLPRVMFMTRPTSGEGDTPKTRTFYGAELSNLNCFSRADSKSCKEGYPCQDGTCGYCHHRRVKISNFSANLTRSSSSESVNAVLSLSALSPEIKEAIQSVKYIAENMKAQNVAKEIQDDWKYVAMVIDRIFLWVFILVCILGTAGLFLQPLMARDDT
T1 sequence (P12392 21-495): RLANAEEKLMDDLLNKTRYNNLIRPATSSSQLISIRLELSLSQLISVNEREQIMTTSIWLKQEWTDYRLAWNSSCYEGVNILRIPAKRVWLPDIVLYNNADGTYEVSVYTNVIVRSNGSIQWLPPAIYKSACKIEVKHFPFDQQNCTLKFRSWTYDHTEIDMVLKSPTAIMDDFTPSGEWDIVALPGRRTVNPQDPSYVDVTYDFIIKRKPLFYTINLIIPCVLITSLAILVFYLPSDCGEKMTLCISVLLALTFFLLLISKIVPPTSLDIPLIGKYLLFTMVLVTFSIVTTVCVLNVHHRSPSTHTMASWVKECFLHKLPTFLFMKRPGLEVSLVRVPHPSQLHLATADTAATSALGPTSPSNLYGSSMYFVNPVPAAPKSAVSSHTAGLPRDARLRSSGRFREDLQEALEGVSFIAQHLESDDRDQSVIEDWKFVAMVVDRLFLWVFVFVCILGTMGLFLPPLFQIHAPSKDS

[4] = test system: mouse liver; assay: In vivo comet assay; conditions: positive control
Description: The comet assay (alkaline single cell gel electrophoresis) is a microgel electrophoretic technique that detects DNA damage in individual cells. DNA damage can be expressed as DNA single strand breaks, double strand breaks, and strand breaks induced by alkali labile sites. […] For this study, the liver was selected as the tissue for evaluation, since this tissue is expected to contain high concentrations of parent drug and metabolites following oral administration.
Male mice were administered oral doses of 0 (vehicle=5% dextrose), 50, 90 and 120 mg/kg/day by gavage according to the table below. Animals in groups 1-4 were dosed on three consecutive days and euthanized 3 to 4 hours after the last dose by CO2 inhalation. A separate group of animals were dosed with methyl methanesulfonate (MMS) which served as a positive control. Immediately following euthanasia, the liver was removed and collected from each animal.
In this study, comet tail migration, % tail DNA (also known as % tail intensity) and tail moment were determined for each animal/treatment group and served as parameters of DNA damage.

[5] = both, human, plasma, po, 4 mg, cohort B, 4 mg PO at 0 and +10 hours
[6] = both, human, plasma, po, 20 mg, cohort A, 20 mg PO single dose
[7] = cohort B, 4 mg PO at 0 and +10 hours

Row | Structure (SMILES) | AUC ([2]; both, human, plasma, po, 4 mg) [ng·h/mL] | AUC(0-inf) ([2]; both, human, plasma, po, 4 mg) [ng·h/mL] | Tmax ([2]; both, human, plasma, po, 4 mg) [h] | half-life ([2]; both, human, plasma, po, 4 mg) [h] | Cmax [2, 5] [ng/mL] | AUC ([2]; both, human, plasma, po, 20 mg) [ng·h/mL] | AUC(0-inf) ([2]; both, human, plasma, po, 20 mg) [ng·h/mL] | Tmax ([2]; both, human, plasma, po, 20 mg) [h] | half-life ([2]; both, human, plasma, po, 20 mg) [h] | Cmax [2, 6] [ng/mL] | AUCall, Max ([2]; cohort A, 20 mg PO single dose) [ng·h/mL] | AUCall, Min ([2]; cohort A, 20 mg PO single dose) [ng·h/mL] | Cmax, Max ([2]; cohort A, 20 mg PO single dose) [ng/mL] | Cmax, Min ([2]; cohort A, 20 mg PO single dose) [ng/mL] | Half-Life, Max ([2]; cohort A, 20 mg PO single dose) [h] | Half-Life, Min ([2]; cohort A, 20 mg PO single dose) [h] | Tmax, Max ([2]; cohort A, 20 mg PO single dose) [h] | Tmax, Min ([2]; cohort A, 20 mg PO single dose) [h] | AUCall, Max [2, 7] [ng·h/mL] | AUCall, Min [2, 7] [ng·h/mL] | other results
1 | CC(C)NCC(O)c1ccc(NS(C)(=O)=O)cc1 (racemic) [dl-Sotalol, reference compound] |  |  |  |  |  |  |  |  |  |  |  |  |  |  |  |  |  |  |  |  | APD60 prolongation [1]: ~40%; APD90 prolongation [1]: ~40%
2 | COC(=O)C12CC3CC(CCO)C1N(C=Cc1c2[nH]c2ccccc12)C3 (stereo not drawn) [M2, methyl7-(2-hydroxyethyl)-7,8,9,10-tetrahydro-5H-6,9-methanopyrido[1′,2′:1,2]azepino[4,5-b]indole-6(6aH)-carboxylate] | 391 | 420 | 11.8 | 44.1 | 11 | 563 | 678 | 1.4 | 14.4 | 41 | 684 | 504 | 62 | 27 | 19.0 | 11.1 | 2.0 | 0.5 | 500 | 287 | Cmax, Max [2, 7]: 12 ng/mL; Cmax, Min [2, 7]: 8 ng/mL; Half-Life, Max [2, 7]: 97.8 h; Half-Life, Min [2, 7]: 18.7 h; Tmax, Max [2, 7]: 12 h; Tmax, Min [2, 7]: 11 h
3 | COCCC1CC2CN3C=Cc4c([nH]c5ccccc45)C(C(=O)OC)(C2)C13 (stereo not drawn) [M4, methyl7-(2-methoxyethyl)-7,8,9,10-tetrahydro-5H-6,9-methanopyrido[1′,2′:1,2]azepino[4,5-b]indole-6(6aH)-carboxylate] | 1650 | 1650 | 7.3 | 22.1 | 72 | 2690 | 2800 | 1.4 | 7.9 | 347 | 3925 | 1897 | 528 | 242 | 9.3 | 6.3 | 2.0 | 0.5 | 1941 | 1304 | IC50 [3]: 2.6 µM; Ipeak [3]: 23 ± 2% of ACh and 42 ± 3% of ACh; Max Inhibition 20-30 μM [3]: 88 ± 3%; fold less potent than the parent 18-MC HCl [3]: approximately 3.5 fold; kon [3]: 4.5 and 4.5 ± 0.4 s−1; reduction of peak ACh-evoked currents [3]: 68±2% and 86±2%; Ipeak ([3]; 30 μM): 14 ± 2% of ACh; Iss ([3]; 30 μM): 40 ± 6% of peak; τdecay ([3]; 30 μM): 205 ± 40 ms; Persistent Inhibition at 1 sec [3]: 21±3%; koff [3]: 2.5 s⁻¹; percentage of the total drug related material [2]: about 40%; Tmax ([2]; cohort A or B, generally): ½; Cmax, Average [2, 7]: 72.3 ng/mL; Cmax, Max [2, 7]: 82 ng/mL; Cmax, Min [2, 7]: 65 ng/mL; Half-Life, Max [2, 7]: 34.3 h; Half-Life, Min [2, 7]: 13.2 h; Tmax, Max [2, 7]: 12 h; Tmax, Min [2, 7]: 0.5 h
4 | COC(=O)C12CC3CC(CC(=O)O)C1N(CCc1c2[nH]c2ccccc12)C3 (stereo not drawn) [M5, 2-(6-(methoxycarbonyl)-6,6a,7,8,9,10,12,13-octahydro-5H-6,9-methanopyrido[1′,2′:1,2]azepino[4,5-b]indol-7-yl)acetic acid] | 163 | 185 | 2.9 | 46.8 | 6 | 210 | 395 | 0.8 | 29.6 | 25 | 359 | 105 | 38 | 12 | 43.4 | 16.2 | 1.0 | 0.5 | 208 | 104 | IC50 [3]: 57 µM; Ipeak [3]: 70 ± 4% of ACh; Iss [3]: 62 ± 4% of peak; Max Inhibition 20-30 μM [3]: 36 ± 5 %; fold less potent than the parent 18-MC HCl [3]: ~76 fold; kon [3]: 2.2 and 2.2 ± 0.4 s−1; τdecay [3]: 554 ± 32 ms; Persistent Inhibition at 1 sec [3]: 2±2%; koff [3]: 6.2 s⁻¹; Tmax ([2]; cohort A or B, generally): ½; Cmax, Max [2, 7]: 9 ng/mL; Cmax, Min [2, 7]: 3 ng/mL; Half-Life, Max [2, 7]: 74.7 h; Half-Life, Min [2, 7]: 19.8 h; Tmax, Max [2, 7]: 11 h; Tmax, Min [2, 7]: 0.5 h
5 | COCCC1CC2CN3C=Cc4c([nH]c5ccc(O)cc45)C(C(=O)OC)(C2)C13 (stereo not drawn) [M8, methyl 2-hydroxy-7-(2-methoxyethyl)-7,8,9,10-tetrahydro-5H-6,9-methanopyrido[1′,2′:1,2]azepino[4,5-b]indole-6(6aH)-carboxylate] |  |  |  |  |  |  |  |  |  |  |  |  |  |  |  |  |  |  |  |  | percentage of the total drug related material [2]: less than 10%
6 | COS(C)(=O)=O [MMS, methyl methanesulfonate, reference compound] |  |  |  |  |  |  |  |  |  |  |  |  |  |  |  |  |  |  |  |  | comet parameters [4]: produced the expected increases
7 | COC(=O)C12CC3CC(CCO[C@@H]4O[C@H](C(=O)O)[C@@H](O)[C@H](O)[C@H]4O)C1N(C=Cc1c2[nH]c2ccccc12)C3 (stereo partly drawn) [P10, (2S,3S,4S,5R,6R)-3,4,5-trihydroxy-6-(2-(6-(methoxycarbonyl)-6,6a,7,8,9,10-hexahydro-5H-6,9-methanopyrido[1′,2′:1,2]azepino[4,5-b]indol-7-yl)ethoxy)tetrahydro-2H-pyran-2-carboxylic acid] |  |  |  |  |  |  |  |  |  |  |  |  |  |  |  |  |  |  |  |  | percentage of the total drug related material [2]: greater than 10%; Tmax ([2]; both, human, plasma, oral, 4 mg): 6 to 10 h
